According to ChEMBL document CHEMBL1139152, “Epoxygenase eicosanoids: synthesis of tetrahydrofuran-diol metabolites and their vasoactivity” (Bioorg Med Chem Lett, 2007):
Calls of active or inactive are those of the source. The rule behind the calls is not given here.

What was measured:
[1] = Vasodilatory activity assessed as relaxation of U46619-induced contraction of bovine coronary arteries; assay type: functional; conditions: Bos taurus; Coronary artery
[2] = Vasodilatory activity assessed as relaxation of U46619-induced contraction of bovine coronary arteries at 10 nM to 10 uM; assay type: functional, tissue-based; conditions: Bos taurus, Coronary artery

Compound: CCCCCC1OC1C/C=C/C/C=C/C/C=C/CCCC(=O)O (centres undefined)
- ED50 [1]: 2.5 µM
- Activity [2]: Active

Compound: CCCCC/C=C\C[C@@H]1O[C@H]([C@H](O)C/C=C\CCCC(=O)O)C[C@@H]1O
- Activity [2]: Active

Compound: CCCCC/C=C\C[C@H]1O[C@H]([C@@H](O)C/C=C\CCCC(=O)O)C[C@H]1O
- Activity [2]: Active

Compound: CCCCC/C=C\C[C@@H]1O[C@H]([C@H](O)C/C=C\CCCC(=O)O)C[C@H]1O
- Activity [2]: Active

Compound: CCCCC/C=C\C[C@H]1O[C@H]([C@H](O)C/C=C\CCCC(=O)O)C[C@@H]1O
- Activity [2]: Active

Compound: CCCCC/C=C\C[C@H]1O[C@H]([C@H](O)C/C=C\CCCC(=O)O)C[C@H]1O
- ED50 [1]: 3 µM
- Activity [2]: Active

Compound: CCCCC/C=C\C[C@H]1O[C@H]([C@@H](O)C/C=C\CCCC(=O)O)C[C@@H]1O
- Activity [2]: Active
